Test results published in PubChem BioAssay AID1996.
Values after ≈ are worked out from the molar mass of the structure shown.

Settings: buffer; pH 7.4; 200.0 µM

| solubility kinetic | Compound |
| --- | --- |
| 46 µg/mL (≈ 135 µM) | CCN(CC(=O)Nc1ccccc1OC)C(=O)CCc1ccccc1 |
| 44.3 µg/mL (≈ 137 µM) | O=C1OCC2=C1C(c1ccccc1)CC(=O)N2c1cccc(F)c1 (stereo not given) |
| > 44.6 µg/mL | OC1CCN(Cc2ccc(OCc3ccccc3)cc2)CC1 |
| 6.2 µg/mL (≈ 19.3 µM) | N/C(=N\OC(=O)COc1ccc2ccccc2c1)c1ccncc1 |
| 39 µg/mL (≈ 136 µM) | CC(CC(=O)NCc1ccc(Cl)cc1)c1ccccc1 (stereo not given) |
| 39.6 µg/mL (≈ 139 µM) | O=C(NC1CCCc2ccccc21)c1ccccc1Cl (stereo not given) |
| > 41.5 µg/mL | CCOc1ccc(C(=O)NCC(=O)N2CCCC2)cc1 |
| > 37.5 µg/mL | Cc1ccc([N+](=O)[O-])cc1NC(=O)/C=C/C(=O)O |
| > 33.6 µg/mL | O=C(NN1CCOCC1)c1cccc(F)c1 |
| 40.6 µg/mL (≈ 146 µM) | Cc1cc(C)nc(SSc2nc(C)cc(C)n2)n1 |
| > 43.6 µg/mL | O=C(CCS(=O)(=O)c1ccccc1)Nc1ccccn1 |
| > 44.2 µg/mL | COc1ccc(C)cc1NC(=S)N1CC(C)OC(C)C1 (stereo not given) |
| 3.2 µg/mL (≈ 5.57 µM) | COc1ccc(NS(=O)(=O)c2cc(NC(=O)c3ccc(S(=O)(=O)N(C)C)cc3)ccc2N2CCOCC2)cc1 |
| 42.7 µg/mL (≈ 126 µM) | Cc1onc(-c2ccccc2)c1C(=O)N1CCCC(C(F)(F)F)C1 (stereo not given) |
| 4.7 µg/mL (≈ 14.4 µM) | O=C(Nc1ccccc1N1CCOCC1)c1ccc2c(c1)OCO2 |
| < 0.3 µg/mL | CC1Cc2ccccc2N1Cc1ccc([N+](=O)[O-])cc1 (stereo not given) |
| < 0.2 µg/mL | Cc1cc(Oc2ncccc2[N+](=O)[O-])c2cc(Cl)ccc2n1 |
| > 36 µg/mL | Nc1ccc(S(=O)(=O)C(F)(F)F)cc1N |

Continued, molecule first:

| Compound | solubility kinetic |
| --- | --- |
| N#Cc1c(-c2ccccc2)cc(-c2ccccc2)nc1SCCC(=O)O | > 54.1 µg/mL |
| COc1cccc(CNCC(=O)NC(=O)NC2CCCC2)c1.O=C(O)C(=O)O | > 59.3 µg/mL |
| Cc1ccc(C)c(S(=O)(=O)N2CCN(C(=O)[C@H](Cc3ccccc3)NC(=O)c3ccco3)CC2)c1 | 18.2 µg/mL (≈ 36.7 µM) |
| O=[N+]([O-])c1ncc(Br)cc1Nc1ccccc1 | 16.3 µg/mL (≈ 55.4 µM) |
| Cc1ccc(NC(=O)NCCN2CCCCC2)cc1C | 37.4 µg/mL (≈ 136 µM) |
| O=C(O)c1cccc(N2C(=O)c3cccc4cccc(c34)C2=O)c1 | > 47.6 µg/mL |
| S=C([S-])N1CCCC1.[NH4+] | 16.6 µg/mL |
| CCOC(=O)C(C)Sc1nc(N2CCOCC2)c2c(c1C#N)CC(C)(C)OC2 (stereo not given) | 38.8 µg/mL (≈ 95.7 µM) |
| CC(=O)c1cc(C)ccc1OC(=O)CN1C(=O)c2ccccc2C1=O | 24.6 µg/mL (≈ 72.9 µM) |
| O=C(NC1CCCCCC1)C1CCN(S(=O)(=O)c2cnc[nH]2)CC1 | 50.7 µg/mL (≈ 143 µM) |
| Cc1ccc(C23CC4CC(CC(C(=O)NCC(=O)O)(C4)C2)C3)cc1 | > 49.1 µg/mL |
| CC(=O)c1c(C)nc2ccc([N+](=O)[O-])cc2c1-c1ccccc1 | 21.9 µg/mL (≈ 71.5 µM) |
| O=C(COc1ccc(Cl)cc1)NCCc1ccccn1 | 37.2 µg/mL (≈ 128 µM) |
| O=C1N(c2ccccc2)c2ccccc2C1(O)C(F)(F)F (stereo not given) | > 44 µg/mL |
| CCCCCCCCCCCCN1C(=O)CSC1c1cccnc1 (stereo not given) | < 0.4 µg/mL |
| COc1ccc(C(=O)C2CCCN(C(=O)C3=CCCC3)C2)c(C)c1 (stereo not given) | > 49.1 µg/mL |
| O=C(NCc1ccccc1Cl)c1ccc[nH]1 | 31.5 µg/mL (≈ 134 µM) |
| CS(=O)(=O)N1CCN(c2ccc(NC(=O)c3ccccc3)cc2)CC1 | 1 µg/mL (≈ 2.78 µM) |
| Cc1cccc(C)c1NC(=O)Cc1cccs1 | > 36.8 µg/mL |
| O=C(NC1CCCCC1)c1cc(C2CC2)on1 | > 35.1 µg/mL |
| NS(=O)(=O)c1ccc(CCNC(=O)c2ccncc2)cc1 | > 45.8 µg/mL |

| Compound | solubility kinetic |
| --- | --- |
| Cc1ccc(S(=O)(=O)N2CC(O)CC2C(=O)OCC(=O)Nc2ccc([N+](=O)[O-])cc2C(F)(F)F)cc1C (stereo not given) | 76.5 µg/mL (≈ 140 µM) |
| Cc1ccc2c(c1)c1c3n2CCN(C=O)C3CCC1 (stereo not given) | 28.1 µg/mL (≈ 110 µM) |
| COc1cc2ncnc(N[C@H](C)c3ccccc3)c2cc1OC | > 46.4 µg/mL |
| Cc1cc(-n2c(C)cc(C(=O)CSc3ccccn3)c2C)no1 | 33.4 µg/mL (≈ 102 µM) |
| CN1CCCN(C(=O)CSc2ccccc2)CC1 | 39.3 µg/mL (≈ 149 µM) |
| O=C(COC(=O)Cc1ccc(F)cc1)NC1CCCC1 | > 41.9 µg/mL |
| CN=C1S/C(=C\c2ccc(O)c(Br)c2)C(=O)N1C | 16.7 µg/mL (≈ 51 µM) |
| Cc1cc(C)n2nc(C(=O)OCC(=O)NCc3ccc(F)cc3)nc2n1 | > 53.6 µg/mL |
| O=C(Sc1ccc(Cl)cc1)c1ccccn1 | 1.7 µg/mL (≈ 6.81 µM) |
| Cc1ccc(C)c(NC(=O)C2COc3ccccc3O2)c1 (stereo not given) | 3.5 µg/mL (≈ 12.4 µM) |
| Cc1ccc(S(=O)(=O)N(C)c2ccc3ccccc3c2)cc1 | 1.6 µg/mL (≈ 5.14 µM) |
| CCCCN(C)C(=O)c1cc2cc3ccc(OC)cc3nc2o1 | 14.5 µg/mL (≈ 46.4 µM) |
| Cc1ccc(CSc2nc3ccccc3c(=O)n2C)cc1 | < 0.3 µg/mL |
| CC(C)[C@H](NC(=O)c1ccccc1)C(=O)NCCc1ccccc1 | 10.3 µg/mL (≈ 31.7 µM) |
| O=C(NCCN1CCN(C(=O)c2cccc(OC(F)F)c2)CC1)c1cccc(OC(F)F)c1 | > 70.4 µg/mL |
| Cc1ccc(N2CCN(C(=O)Nc3cccc([N+](=O)[O-])c3)CC2C)cc1 (stereo not given) | 22 µg/mL (≈ 62.1 µM) |
| CN(C)S(=O)(=O)c1cccc(C(=O)NCCCn2ccnc2)c1 | > 50.5 µg/mL |
| Cc1cccc(C)c1NC(=S)NC(=O)c1ccc(Br)o1 | 4.1 µg/mL (≈ 11.6 µM) |
| COc1ccc(CNc2ncnc3c2[nH]c2cc(OC)c(OC)cc23)cc1 | 1.2 µg/mL (≈ 3.29 µM) |
| O=C(Nc1ccc(Cl)cc1)c1cncs1 | > 35.8 µg/mL |
| Cc1ccccc1-n1ccnc1SCC(=O)NC1CCCC1 | > 47.3 µg/mL |
